Reference: US20200017495A1, “NOVEL HETEROCYCLIC COMPOUNDS AND THEIR USE IN PREVENTING OR TREATING BACTERIAL INFECTIONS” (priority 2017, published 2020)

System: Klebsiella pneumoniae (KPN) isolates
Experiment: MIC of compounds alone and combined with antibacterials, broth microdilution (CLSI)
Type: cell-based
Description: Method 2: MIC of Compounds Alone and Combined with Antibacterials Against Bacterial Isolates
Compounds of the present invention were assessed against genotyped bacterial strains (Table 3, 4) alone or in combination with an antibacterial (Table 2). […] Log phase bacterial suspensions were adjusted to a final density of 5.10^5 CFU/mL in cation-adjusted Mueller-Hinton broth (ca-MHB; Becton-Dickinson and Company) and added to each well (98 μL). Microplates were incubated for 16-20 h at 35° C. in ambient air. The MIC of the compounds was defined as the lowest concentration of said compounds that prevented bacterial growth as read by visual inspection. The MIC of ATB at each compound concentration was defined as the lowest concentration of ATB that prevented bacterial growth as read by visual inspection.

C=CC1=C(C(=O)O)N2C(=O)[C@@H](NC(=O)/C(=N\OCC(=O)O)c3csc(N)n3)[C@H]2SC1 [FIX, Cefixime]
MIC ATB in combination (KPN UFR78, AF2 @ 8 μg/mL): >128 µg/mL
MIC ATB in combination (KPN UFR78, AF3 @ 8 μg/mL): >128 µg/mL
MIC ATB in combination (KPN UFR78, CLA @ 4 μg/mL): >128 µg/mL
MIC ATB in combination (KPN UFR79, AF2 @ 8 μg/mL): 2 µg/mL
MIC ATB in combination (KPN UFR79, AF3 @ 8 μg/mL): 2 µg/mL
MIC ATB in combination (KPN UFR79, CLA @ 4 μg/mL): >128 µg/mL
MIC ATB in combination (KPN UFR80, AF2 @ 8 μg/mL): <=0.25 μg/mL
MIC ATB in combination (KPN UFR80, AF3 @ 8 μg/mL): <=0.25 μg/mL
MIC ATB in combination (KPN UFR80, CLA @ 4 μg/mL): 0.5 µg/mL
MIC ATB in combination (KPN UFR81, AF2 @ 8 μg/mL): 64 µg/mL
MIC ATB in combination (KPN UFR81, AF3 @ 8 μg/mL): 32 µg/mL
MIC ATB in combination (KPN UFR81, CLA @ 4 μg/mL): >128 µg/mL
MIC ATB in combination (KPN UFR215, AF2 @ 8 μg/mL): <=0.25 μg/mL
MIC ATB in combination (KPN UFR215, AF3 @ 8 μg/mL): <=0.25 μg/mL
MIC ATB in combination (KPN UFR215, CLA @ 4 μg/mL): 1 µg/mL
MIC ATB in combination (KPN UFR216, AF2 @ 8 μg/mL): <0.25 µg/mL
MIC ATB in combination (KPN UFR216, AF3 @ 8 μg/mL): <0.25 µg/mL
MIC ATB in combination (KPN UFR216, CLA @ 4 μg/mL): <=0.25 μg/mL
MIC ATB in combination (KPN UFR217, AF2 @ 8 μg/mL): <0.25 µg/mL
MIC ATB in combination (KPN UFR217, AF3 @ 8 μg/mL): <0.25 µg/mL
MIC ATB in combination (KPN UFR217, CLA @ 4 μg/mL): <=0.25 μg/mL
MIC ATB in combination (KPN UFR218, AF2 @ 8 μg/mL): <0.25 µg/mL
MIC ATB in combination (KPN UFR218, AF3 @ 8 μg/mL): <0.25 µg/mL
MIC ATB in combination (KPN UFR218, CLA @ 4 μg/mL): 1 µg/mL
MIC ATB in combination (KPN UFR219, AF2 @ 8 μg/mL): 0.5 µg/mL
MIC ATB in combination (KPN UFR219, AF3 @ 8 μg/mL): <=0.25 μg/mL
MIC ATB in combination (KPN UFR219, CLA @ 4 μg/mL): 0.5 µg/mL
MIC ATB in combination (KPN UFR220, AF2 @ 8 μg/mL): <0.25 µg/mL
MIC ATB in combination (KPN UFR220, AF3 @ 8 μg/mL): <0.25 µg/mL
MIC ATB in combination (KPN UFR220, CLA @ 4 μg/mL): >128 µg/mL
MIC ATB in combination (KPN UFR221, AF2 @ 8 μg/mL): <0.25 µg/mL
MIC ATB in combination (KPN UFR221, AF3 @ 8 μg/mL): <0.25 µg/mL
MIC ATB in combination (KPN UFR221, CLA @ 4 μg/mL): 128 µg/mL
MIC ATB in combination (KPN UFR222, AF2 @ 8 μg/mL): <0.25 µg/mL
MIC ATB in combination (KPN UFR222, AF3 @ 8 μg/mL): <0.25 µg/mL
MIC ATB in combination (KPN UFR222, CLA @ 4 μg/mL): >128 µg/mL
MIC ATB in combination (KPN UFR227O, AF2 @ 8 μg/mL): 8 µg/mL
MIC ATB in combination (KPN UFR227O, AF3 @ 8 μg/mL): 16 µg/mL
MIC ATB in combination (KPN UFR227O, CLA @ 4 μg/mL): >128 µg/mL
MIC (strain KPN 6299, genotype TEM-1, SHV-11, OXA-163): 8 µg/mL
MIC (strain KPN 110376, compound alone): >128 µg/mL
MIC (strain KPN 110376, genotype TEM-1, SHV-1, CTX-M-15, OXA-1, OXA-48): >128 µg/mL
MIC (strain KPN 121206, genotype SHV-1, NDM-1): >128 µg/mL
MIC (strain KPN 131119, compound alone): >128 µg/mL
MIC (strain KPN 131119, genotype TEM-1, SHV-11, CTX-M-15, OXA-1, OXA-48): >128 µg/mL
MIC (strain KPN 140347, genotype CTX-M-15, NDM-1, antibiotic alone): >128 µg/mL
MIC ATB in combination (strain KPN 140347, with AF2 @ 8 μg/mL): >128 µg/mL
MIC ATB in combination (strain KPN 140347, with AF3 @ 8 μg/mL): >128 µg/mL
MIC ATB in combination (strain KPN 140347, with CLA @ 4 μg/mL): >128 µg/mL
MIC (strain KPN 140513, genotype TEM-1, SHV-11, CTX-M-15, KPC-3): >128 µg/mL
MIC (strain KPN 160143, genotype TEM-1, SHV-1, CTX-M-15, KPC-2, OXA-1): >128 µg/mL
MIC (strain KPN 190128, genotype TEM-1, SHV-32, CTX-M-15, OXA-1): >128 µg/mL
MIC (strain KPN 190270, compound alone): >128 µg/mL
MIC (strain KPN 190270, genotype TEM-1, SHV-76, CTX-M-15, OXA-1): >128 µg/mL
MIC (strain KPN 190425, genotype TEM-1, SHV-1, CTX-M-15, OXA-1): >128 µg/mL
MIC (strain KPN 190551, genotype TEM-1, SHV-1, CTX-M-15, OXA-1): >128 µg/mL
MIC (strain KPN 200047, genotype TEM-1, SHV-32, CTX-M-15, OXA-1): >128 µg/mL
MIC (strain KPN 200327, genotype TEM-1, SHV-1, CTX-M-15, OXA-1): 64 µg/mL
MIC (strain KPN 260251, genotype TEM-1, SHV-11, SHV-12, CTX-M-15, KPC-2): >128 µg/mL
MIC (strain KPN 260252, genotype TEM-1, SHV-11, KPC-3): >128 µg/mL
MIC (strain KPN 260376, genotype SHV-1, SHV-49, OXA-1): >128 µg/mL
MIC (strain KPN 270077, genotype TEM-1, SHV-1, CTX-M-15): >128 µg/mL
MIC (strain KPN 700603, genotype SHV-18, OXA-2): 16 µg/mL
MIC (strain KPN ARA, genotype TEM-1, SHV-11, CTX-M-15, OXA-1, OXA-48): >128 µg/mL
MIC (strain KPN BAA-1898, genotype TEM-1, SHV-11, SHV-12, KPC-2): >128 µg/mL
MIC (strain KPN LIB, genotype SHV-11, OXA-48): <=0.25 μg/mL
MIC (strain KPN UFR22_O, genotype TEM-1, SHV-1, OXA-48): <=0.25 μg/mL
MIC (strain KPN UFR23, genotype TEM-1, SHV-1, OXA-48): <=0.25 μg/mL
MIC (strain KPN UFR24, genotype TEM-1, SHV-2, SHV-11, OXA-1, OXA-48, OXA-47): >128 µg/mL
MIC (strain KPN UFR25, compound alone): >128 µg/mL
MIC (strain KPN UFR25, genotype TEM-1, SHV-11, CTX-M-15, OXA-162): >128 µg/mL
MIC (strain KPN UFR27, genotype TEM-1, SHV-28, CTX-M-15, OXA-204): >128 µg/mL
MIC (strain KPN UFR28, genotype TEM-1, SHV-1, CTX-M-15, OXA-1, OXA-232): 256 µg/mL
MIC (strain KPN UFR33, genotype TEM-2, SHV-12, CTX-M-15, OXA-1, OXA-10): >128 µg/mL
MIC (strain KPN UFR42, genotype SHV-2, CTX-M-15 OXA-1, OXA-181, NDM-1): >128 µg/mL
MIC (strain KPN UFR43, genotype SHV-11, CTX-M-15, CMY-2, OXA-1, NDM-1): >128 µg/mL
MIC (strain KPN UFR46, genotype TEM-1, SHV-12, CTX-M-15, OXA-9, VIM-1): >128 µg/mL
MIC (strain KPN UFR53, genotype TEM-1, IMP-1): >128 µg/mL
MIC (strain KPN UFR65, genotype TEM-1, SHV-11, KPC-2): >128 µg/mL
MIC (strain KPN UFR66, compound alone): 512 µg/mL
MIC (strain KPN UFR66, genotype TEM-1, SHV-11, CTX-M-15, KPC-2): 512 µg/mL
MIC (strain KPN UFR67, genotype TEM-1, SHV-11, KPC-3): >128 µg/mL
MIC (strain KPN UFR68, compound alone): >128 µg/mL
MIC (strain KPN UFR68, genotype TEM-1, SHV-11, CTX-M-15, KPC-3): >128 µg/mL
MIC (strain KPN UFR76, genotype TEM-155, SHV-11, ACT-1, OXA-2): >128 µg/mL
MIC (strain KPN UFR77, genotype CMY-2): 128 µg/mL
MIC (strain KPN UFR78, genotype TEM-1, SHV-1, CTX-M-15, CMY-2, OXA-1, OXA-48): >128 µg/mL
MIC (strain KPN UFR79, genotype DHA-1, OXA-1): >128 µg/mL
MIC (strain KPN UFR80, genotype SHV-11, DHA-1, OXA-1): <=0.25 μg/mL
MIC (strain KPN UFR81, genotype TEM-1, SHV-1, DHA-1, OXA-48): >128 µg/mL
MIC (strain KPN UFR162, genotype SHV-28, TEM-1, CTX-M-15, OXA-181, OXA-181, NDM-1, antibiotic alone): >128 µg/mL
MIC ATB in combination (strain KPN UFR162, with AF2 @ 8 μg/mL): >128 µg/mL
MIC ATB in combination (strain KPN UFR162, with AF3 @ 8 μg/mL): <0.25 µg/mL
MIC ATB in combination (strain KPN UFR162, with CLA @ 4 μg/mL): >128 µg/mL
MIC (strain KPN UFR163, genotype TEM-1, SHV-1, CTX-M-15, OXA-232, OXA-9, NDM-1, qnrB1, qepA, RmtB, antibiotic alone): >128 µg/mL
MIC ATB in combination (strain KPN UFR163, with AF2 @ 8 μg/mL): >128 µg/mL
MIC ATB in combination (strain KPN UFR163, with AF3 @ 8 μg/mL): <0.25 µg/mL
MIC ATB in combination (strain KPN UFR163, with CLA @ 4 μg/mL): >128 µg/mL
MIC (strain KPN UFR164, genotype SHV-11, CTX-M-15, OXA-1, OXA-181, NDM-1, antibiotic alone): >128 µg/mL
MIC ATB in combination (strain KPN UFR164, with AF2 @ 8 μg/mL): >128 µg/mL
MIC ATB in combination (strain KPN UFR164, with AF3 @ 8 μg/mL): >128 µg/mL
MIC ATB in combination (strain KPN UFR164, with CLA @ 4 μg/mL): >128 µg/mL
MIC (strain KPN UFR165, genotype TEM-1, SHV-11, CTX-M-15, OXA-1, OXA-181, NDM-1, antibiotic alone): >128 µg/mL
MIC ATB in combination (strain KPN UFR165, with AF2 @ 8 μg/mL): 64 µg/mL
MIC ATB in combination (strain KPN UFR165, with AF3 @ 8 μg/mL): >128 µg/mL
MIC ATB in combination (strain KPN UFR165, with CLA @ 4 μg/mL): >128 µg/mL
MIC (strain KPN UFR166, genotype TEM-1, TEM-1, CTX-M-15, OXA-181, OXA-9, NDM-1, antibiotic alone): >128 µg/mL
MIC ATB in combination (strain KPN UFR166, with AF2 @ 8 μg/mL): >128 µg/mL
MIC ATB in combination (strain KPN UFR166, with AF3 @ 8 μg/mL): >128 µg/mL
MIC ATB in combination (strain KPN UFR166, with CLA @ 4 μg/mL): >128 µg/mL
MIC (strain KPN UFR167, genotype TEM-1, SHV-12, CTX-M-15, OXA-9, NDM-1, antibiotic alone): >128 µg/mL
